What was measured:
PBMC = experiment: Inhibition of IL-5 secretion in anti-human CD3 antibody/anti-human CD28 antibody/IL23-stimulated human PBMC after 48 hrs by ELISA; type: functional, cell-based
[1] = molecular target: Nuclear receptor ROR-gamma (Homo sapiens, UniProt P51449); experiment: Antagonist activity at GAL4-DBD fused human RORgamma LBD expressed in HEK293 cells after 18 hrs by luciferase reporter gene assay; type: cell-based
[2] = molecular target: PI3-kinase p110-alpha/p85-alpha (Homo sapiens) (UniProt P27986+P42336); experiment: Inhibition of recombinant full length human His-tagged PI3K p110alpha/p85alpha at 500 nM by Z-LYTE assay relative to control; type: protein-complex assay

Sequence of Nuclear receptor ROR-gamma (P51449 whole entry, the tested form may be a part): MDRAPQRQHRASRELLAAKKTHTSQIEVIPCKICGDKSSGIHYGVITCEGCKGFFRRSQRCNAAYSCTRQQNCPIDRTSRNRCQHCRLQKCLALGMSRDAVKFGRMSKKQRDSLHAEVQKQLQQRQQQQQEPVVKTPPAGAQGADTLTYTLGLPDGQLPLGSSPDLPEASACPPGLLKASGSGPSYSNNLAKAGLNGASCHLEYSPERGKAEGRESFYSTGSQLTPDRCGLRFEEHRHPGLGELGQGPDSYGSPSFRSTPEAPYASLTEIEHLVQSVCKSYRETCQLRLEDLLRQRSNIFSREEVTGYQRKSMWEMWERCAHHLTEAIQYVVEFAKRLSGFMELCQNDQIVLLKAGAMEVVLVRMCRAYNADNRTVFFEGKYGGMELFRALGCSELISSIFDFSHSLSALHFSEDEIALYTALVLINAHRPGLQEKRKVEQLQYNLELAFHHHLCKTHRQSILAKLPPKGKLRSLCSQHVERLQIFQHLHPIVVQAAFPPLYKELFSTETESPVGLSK

Row | IC50 [1] | inhibition [2] | SMILES | IC50 (PBMC)
1 |  |  | OCc1ccc(-c2cc3c(N[C@H](CO)c4ccccc4)ncnc3[nH]2)cc1 | 1.1 µM
2 | 4.9 µM |  | CCC(=O)Nc1ccc(-c2c[nH]c3ncnc(N[C@H](C)c4ccccc4)c23)cc1 | 
3 | > 10 µM |  | CN(C)CCn1cc(-c2cccc(O)c2)c2c(N)ncnc21 | 
4 |  | 16% | OC[C@@H](Nc1ncnc2sc(-c3ccc(O)cc3)cc12)c1ccccc1 | 13 to 13.1 µM
